Data as given in patent US20230322756A1, “FUSED IMIDAZOLE DERIVATIVE, PREPARATION METHOD THEREFOR, AND MEDICAL USE THEREOF” (JIANGSU HENGRUI MEDICINE CO., LTD., priority 2020, published 2023).

Target: GLP-1 receptor (Homo sapiens (Human), UniProt P43220)
Test: Agonist activity against GLP-1 receptor, CRE-luciferase reporter (ONE-Glo) in CHO-K1/CRE-luc/GLP-1 receptor cells
Format: cell-based
Conditions: 6 h incubation
Text: This experiment was intended to test the agonist activity of the compound molecules against the GLP-1 receptor and evaluate the in vitro activity of the molecules according to EC50. The experiment adopted a ONE-Glo™ Luciferase Assay System (Promega, E6110). Under the action of compound molecules, GLP-1R downstream signaling pathways were activated to cause elevated cAMP level. The combination of cAMP and CRE could start the transcription expression of CRE downstream luciferase genes, the luciferase could emit fluorescence when reacting with substrates thereof, and the activity of the compound for agonizing GLP-1 receptors was reflected by measuring fluorescence signals through a ONE-Glo™ reagent.
Stably-expressed CHO-K1/CRE-luc/GLP-1 receptor cell strains (self-construction of GLP-1 receptor plasmid; CRE-luc plasmid Promega E8471) were constructed. CHO-K1/CRE-luc/GLP-1 receptor cells were digested, and resuspended after centrifugation. […] The plate was incubated in an incubator for 16 h (37° C., 5% CO2).
The compound was dissolved in DMSO to prepare a stock solution with an initial concentration of 20 mM. The starting concentration of the small molecule compound was 0.2 mM, and the compound underwent 3-fold serial dilution for a total of 10 concentration points, with DMSO at the 11th point. To another 96-well plate was added 95 μL of cell culture medium (DME/F-12+10% FBS), 5 μL of test samples with different concentrations were added to each well, followed by uniform mixing, and then 10 μL of test samples with different concentrations were added to each well, with two duplicate wells set for each sample. The plate was incubated in an incubator for 6 h (37° C., 5% CO2). The 96-well cell culture plate was taken out, and 100 μL of ONE-Glo™ reagent was added to each well, followed by incubation at room temperature for 10 min. The plate was placed in a microplate reader (EnVision 2105, PE) for determination of chemiluminescence.
Data were processed and analyzed using Microsoft Excel and Graphpad Prism 5.

Chain of GLP-1 receptor (P43220 24-463): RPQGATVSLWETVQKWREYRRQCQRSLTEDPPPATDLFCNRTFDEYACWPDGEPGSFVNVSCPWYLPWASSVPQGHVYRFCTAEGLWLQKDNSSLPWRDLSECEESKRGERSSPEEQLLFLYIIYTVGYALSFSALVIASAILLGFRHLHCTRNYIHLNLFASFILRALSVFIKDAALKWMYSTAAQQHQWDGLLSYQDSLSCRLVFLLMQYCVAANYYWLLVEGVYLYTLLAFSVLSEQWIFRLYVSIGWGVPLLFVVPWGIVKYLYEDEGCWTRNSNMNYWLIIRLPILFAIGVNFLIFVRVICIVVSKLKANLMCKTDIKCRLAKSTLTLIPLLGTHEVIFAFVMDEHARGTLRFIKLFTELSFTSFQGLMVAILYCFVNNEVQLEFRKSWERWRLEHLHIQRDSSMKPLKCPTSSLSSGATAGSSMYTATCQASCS

In the case of O=C(O)c1ccc2nc(CN3CCC(c4cccc5c4O[C@@H](c4ccc(Cl)cc4F)CO5)CC3)n(C[C@@H]3CCO3)c2n1 [Example 5, 2-((4-((S)-3-(4-Chloro-2-fluorophenyl)-2,3-dihydrobenzo[b][1,4]dioxan-5-yl)piperidin-1-yl)methyl)-3-((S)-oxetan-2-ylmethyl)-3H-imidazo[4,5-b]pyridine-5-carboxylic acid], the EC50 is reported as 120 pM and the Emax is reported as 107%.
